Assay results as given in patent US10124003B2, “Therapeutic agent for FGFR inhibitor-resistant cancer” (TAIHO PHARMACEUTICAL CO., LTD., priority 2013, dated 2018).
Read-outs that look alike come from different tables or passages of the source.

How the values were obtained:
OCUM-2MD3 cells [1] = experiment: Cell growth inhibition, OCUM-2MD3 parent cells (Test Example 7); type: cell-based, human; conditions: OCUM-2MD3 parent cell
[2] = tested on: AZD4547 resistant OCUM-2MD3 cells; experiment: Cell growth inhibition, AZD4547 resistant OCUM-2MD3 cells (Test Example 7); type: cell-based, human
OCUM-2MD3 cells [3] = conditions: Homo sapiens, OCUM-2MD3, 72 h
Experimental: Human-derived gastric cancer OCUM-2MD3 cells, which overexpressed FGFR2, were subcultured daily in a Dulbecco's modified Eagle's medium (DMEM) containing 10% fetal bovine serum (FBS) at a cell density of not more than 80%. In order to initiate a test of the cell growth-inhibitory effect of the compounds, the OCUM-2MD3 cells were suspended in the above DMEM medium and seeded in a 96-well flat-bottom plate so that each well contained 3,000 cells. Then, the cells were cultured in an incubator containing 5% carbon dioxide gas at 37° C. for one day. […] The DMSO solution of the test compound was diluted with the medium used for cultivation, and the diluted solution was added to each well of the cell culture plate so that the final concentration of DMSO became 0.5%. Then, the cells were cultured in an incubator containing 5% carbon dioxide gas at 37° C. for 72 hours. The number of cells was measured at the time of the addition of the test compound and 72 hours later after culture by using a Cell Counting Kit-8 (produced by Dojindo Laboratories) according to a protocol recommended by Dojindo Laboratories. […] After completion of the reaction, the absorbance at a wavelength of 450 nm was measured by a microplate reader. […]
T: absorbance of well to which test compound was added
C: absorbance of well to which test compound was not added
C0: absorbance of well measured before addition of compound

[4] = molecular target: purified recombinant human FGFR2 protein (Homo sapiens (Human), UniProt P21802); experiment: Inhibitory effect on FGFR2 kinase activity (Test Example 1); type: biochemical; conditions: ATP 75 μM
purified recombinant human FGFR2 protein, sequence (P21802 22-821): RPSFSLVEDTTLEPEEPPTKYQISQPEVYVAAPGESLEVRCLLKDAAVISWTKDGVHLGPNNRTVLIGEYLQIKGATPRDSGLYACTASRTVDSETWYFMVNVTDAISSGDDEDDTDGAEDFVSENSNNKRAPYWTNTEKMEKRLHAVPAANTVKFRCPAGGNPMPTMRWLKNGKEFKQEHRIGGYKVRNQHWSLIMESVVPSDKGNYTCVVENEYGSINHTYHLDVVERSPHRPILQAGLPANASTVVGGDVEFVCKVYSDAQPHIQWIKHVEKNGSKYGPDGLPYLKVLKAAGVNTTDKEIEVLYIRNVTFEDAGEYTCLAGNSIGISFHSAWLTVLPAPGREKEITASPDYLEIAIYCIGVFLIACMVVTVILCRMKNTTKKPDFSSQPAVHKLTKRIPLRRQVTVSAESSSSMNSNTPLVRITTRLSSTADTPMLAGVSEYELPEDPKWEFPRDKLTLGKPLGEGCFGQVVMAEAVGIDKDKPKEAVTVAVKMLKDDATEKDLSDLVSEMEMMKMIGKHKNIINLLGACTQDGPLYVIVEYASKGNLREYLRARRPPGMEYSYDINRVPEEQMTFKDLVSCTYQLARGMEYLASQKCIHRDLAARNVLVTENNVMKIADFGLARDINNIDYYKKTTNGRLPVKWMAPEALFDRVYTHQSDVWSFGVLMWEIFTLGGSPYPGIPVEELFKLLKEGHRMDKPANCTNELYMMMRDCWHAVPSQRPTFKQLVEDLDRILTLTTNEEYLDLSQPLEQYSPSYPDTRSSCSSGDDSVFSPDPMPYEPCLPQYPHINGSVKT
Experimental: EDTA (final concentration: 30 mM) diluted with a separation buffer (Caliper Life Sciences, Inc.) was added thereto to terminate the kinase reaction. […] The level of phosphorylation was determined from the quantitative ratio.

Row | Compound | GI50 (OCUM-2MD3 cells [3]) | IC50 [4] | other results
1 | COc1cc(CCc2cc(NC(=O)c3ccc(N4CC(C)NC(C)C4)cc3)n[nH]2)cc(OC)c1 (centres unmarked) [AZD4547] | – | – | IC50 (OCUM-2MD3 cells [1]): 6.1 nM; IC50 ([2]; read-out: Cell growth inhibition, IC50 (nM) AZD4547 resistant cells, AZD4547 resistant OCUM-2MD3 cells, range in brackets): 159 nM
2 | CCN1CCN(c2ccc(Nc3cc(N(C)C(=O)Nc4c(Cl)c(OC)cc(OC)c4Cl)ncn3)cc2)CC1 [BGJ398] | – | – | IC50 (OCUM-2MD3 cells [1]; Homo sapiens): 7.6 nM; IC50 ([2]; Homo sapiens, OCUM-2MD3, read-out: Cell growth inhibition, IC50 (nM) AZD4547 resistant cells): 55.6 nM
3 | CCOc1cc(C#Cc2nn(C3CN(C(=O)/C=C/CN(C)C)C3)c3ncnc(N)c23)cc(OCC)c1 [Ex. Compound 25, 1-(3-(4-amino-3-((3,5-diethoxyphenyl)ethynyl)-1H-pyrazolo[3,4-d]pyrimidin-1-yl)azetidin-1-yl)-4-(dimethylamino)but-2-en-1-one] | 13 nM | – | –
4 | C=CC(=O)N1C[C@@H](n2cc(C#Cc3cc(OC)cc(OC)c3)c3c(N)ncnc32)C[C@H]1C(=O)OC [Ex. Compound 66, (2S,4S)-methyl 1-acryloyl-4-(4-amino-5-((3,5-dimethoxyphenyl)ethynyl)-7H-pyrrolo[2,3-d]pyrimidin-7-yl)pyrrolidine-2-carboxylate] | < 4.6 nM | < 0.3 nM | –
5 | CC(C)c1cc(C#Cc2nn([C@H]3CCN(C(=O)/C=C/CN(C)C)C3)c3ncnc(N)c23)cc(C(C)C)c1 [Ref. Ex. Compound 4, (S)-1-(3-(4-amino-3-((3,5-diisopropylphenyl)ethynyl)-1H-pyrazolo[3,4-d]pyrimidin-1-yl)pyrrolidin-1-yl)-4-(dimethylamino)but-2-en-1-one] | – | > 10000 nM | –
